Measured values published in ChEMBL document CHEMBL5030555.
Calls of active or inactive are those of the source. The rule behind the calls is not given here.

Experiments:
Vero [1] = experiment: Protection against Escherichia coli Stx2a-induce d african green monkey Vero cell death assessed as protection of cell viability incubated pretreated cells for 1 hr measured after 2 hrs of toxin addition; format: functional, cell-based; conditions: Chlorocebus sabaeus, time 3.0 hrs
Vero [2] = experiment: Inhibition of Escherichia coli Stx2a using african green monkey Vero cell assessed as inhibition of depurination incubated pretreated cells for 1 hr measured after 2 hrs of toxin addition; format: cell-based; conditions: time 3.0 hrs

Structure (SMILES)	Activity (Vero [1])	inhibition (Vero [2])
Cc1cc(C)c(-c2ccc(C(=O)O)s2)c(C)c1	inactive	inactive
Cc1cccc(C)c1-c1ccc(C(=O)O)s1	inactive	inactive
CCc1ccccc1-c1ccc(C(=O)O)s1	inactive	inactive
Cc1ccccc1-c1ccc(C(=O)O)s1	inactive	inactive
